Reference: the NIST ThermoML archive (doi:10.1016/j.jct.2011.01.016)
± gives the expanded uncertainty stated by the source.

Experiment: xn = mol fraction of the nth substance listed
Settings: 100 kPa, Liquid; for viscosity: Concentric cylinders viscometry; for mass density: Vibrating tube method

CC(CC(C)(C)C)CP(=O)([O-])CC(C)CC(C)(C)C.CCCCCCCCCCCCCC[P+](CCCCCC)(CCCCCC)CCCCCC + O
x2 = 0.876
Settings	mass density [kg/m3]	viscosity [mPa·s]
298.15 K	907.3 ± 1.1	173.82 ± 3
303.15 K	903.9 ± 1.1	128.58 ± 1.8
308.15 K	900.5 ± 1.1	97.03 ± 1.1
313.15 K	897.2 ± 1.1	74.52 ± 0.66
318.15 K	893.8 ± 1.1	58.16 ± 0.44
323.15 K	890.4 ± 1.1	46.06 ± 0.36
328.15 K	887.1 ± 1.1	37 ± 0.29
333.15 K	883.6 ± 1.1	30.09 ± 0.24
338.15 K	880.2 ± 1.1	24.76 ± 0.19
343.15 K	876.8 ± 1.1	20.59 ± 0.16
348.15 K	873.4 ± 1.1	17.3 ± 0.14
353.15 K	869.9 ± 1.1	14.66 ± 0.12
358.15 K	866.5 ± 1.1	12.53 ± 0.098
363.15 K	863.1 ± 1.1	10.78 ± 0.08

CCCCCCCCCCCCCC[P+](CCCCCC)(CCCCCC)CCCCCC.N#C[N-]C#N [tetradecyl(trihexyl)phosphonium dicyanamide] + O
x2 = 0.496
Settings	mass density [kg/m3]	viscosity [mPa·s]
298.15 K	900.7 ± 2.2	190.83 ± 3.5
303.15 K	897.6 ± 2.2	145.77 ± 2.2
308.15 K	894.7 ± 2.2	113.3 ± 1.5
313.15 K	891.7 ± 2.2	89.4 ± 0.95
318.15 K	888.7 ± 2.2	71.54 ± 0.64
323.15 K	885.7 ± 2.2	57.96 ± 0.46
328.15 K	882.7 ± 2.2	47.54 ± 0.39
333.15 K	879.8 ± 2.2	39.43 ± 0.32
338.15 K	876.8 ± 2.2	33.03 ± 0.27
343.15 K	873.8 ± 2.2	27.94 ± 0.23
348.15 K	870.9 ± 2.2	23.84 ± 0.2
353.15 K	867.9 ± 2.2	20.52 ± 0.17
358.15 K	865 ± 2.2	17.78 ± 0.15
363.15 K	862 ± 2.1	15.51 ± 0.13
